Measurements as given in patent US6982252B2, “Inhibition of vacuolar proton ATPase activity and/or the modulation of acidic organelle function sensitizes cells to radiation, chemotherapy and biological agents” (Memorial Sloan-Kettering Cancer Center, priority 2000, dated 2006).
Several values for one entry are separate records, joined by “and”; a condition that tells them apart may be missing. Equal entries are not always repeated. Marks after values point to notes of the source that are not given here.

Columns and labels:
[1] = tested on: MCF-7 (human breast adenocarcinoma); test: Clonogenic survival (surviving fraction) of MCF-7 cells after radiation or chemotherapeutic agent; format: cell-based
Protocol: MCF-7 (human breast adenocarcinoma), LoVo (human colon adenocarcinoma) and LNCaP (human prostate carcinoma) were obtained from the American Type Culture Collection. Cells were maintained as described in Paglin et al., 1997, Biochem. Biophs. Res. Comm. 237:678-684). Irradiation was carried out 48 hours post-plating (T0) at room temperature using a Cs-137 irradiator (Sheperd Mark-I, model 68, SN643) at a dose rate of 2.43-2.32 Gy/min. Bovine aortic endothelial cells were grown and treated with H2O2 as described in Haimovitz-Friedman et al., 1994, J. Exp. Med. 180:525-535 and Verhij et al., 1996, Nature 380:75-79. Phorbol 12-myristate 13-acetate (PMA; Alexis Biochemicals Corp., San Diego, Calif.) was dissolved in dimethyl sulfoxide (DMSO) and added to cells for the duration of one hour. The final DMSO concentration was 0.03%. The cells were then rinsed with warm growth medium before being returned to the incubator for an additional 48 hours.
Cells were plated in growth medium at a density of 30-90 cells per square centimeter and irradiated 22 hours later. Each experimental condition was done in quintet or triplicate. Cells were irradiated at room temperature in Cs-137 Irradiator (Sheperd Mark-I, Model 68, SN 643) at a rate of 2.43-2.32 Gy/min. […] For determination of their red to green ratio, colonies were processed as described above. For determination of surviving fractions cells were stained with crystal violet and colonies containing 50 cells or more were counted with a dissecting microscope. The surviving fraction was defined as the ratio between the plating efficiencies of irradiated and non-irradiated cells and was calculated at each dose level according to Hall and Phill (1994, […] for the Radiologist, 4th Edition, J. Lippincott Co., Philadelphia).

[2] = tested on: MCF-7 (human breast adenocarcinoma); test: as above; format: cell-based; remark: listed apart in the source
[3] = tested on: DNA of irradiated MCF-7 cells; test: DNA fragmentation by pulse field gel electrophoresis (PFGE); format: cell-based, human; settings: bafilomycin A1 (4 nM) added two days following 10 Gy, for 24 hours
Protocol: FIG. 6. Bafilomycin A1 enhances DNA fragmentation in irradiated cells: Cells were irradiated 48 hours post-plating and bafilomycin A1 (4 nM) was added 48 hours following irradiation, for the duration of 24 hours, from concentrated stock solution at dimethylsulfoxide (DMSO) to a final concentration of 4 nM. Control cells received the vehicle alone. Cells were harvested 72 hours following irradiation. Plug preparation and resolution of DNA was conducted according to Gilles et al. (2000, Blood 95:2930-2936). M-DNA size standard, lambda 50 kb ladder. A-Unirradiated controls. B-Cells irradiated with 10 Gy. C-Unirradiated cells incubated with 4 nM bafilomycin A1. D-Cells irradiated with 10 Gy and incubated with 4 nM bafilomycin A1. Window of DNA resolution was 20 kb-1000 kb. Arrow 1 points to sample origin. Arrow 2 points to zone of no resolution.
DNA extraction and electrophoresis on agarose gel was carried out according to Bose et al., 1995, Cell 82:405-414. DNA preparation and resolution with pulse field gel electrophoresis (PFGE) was conducted as described in Gilles et al., 2000, Blood 95:2930-2936 utilizing the CHEF Mapper (Bio-Rad, Richmond, Calif.). DNA strand breaks were assayed by the TUNEL method and analyzed by flow cytometry (Haimovitz-Friedman, 1994, J. Exp. Med. 180:525-535).

V-ATPase = V-ATPase (Homo sapiens, UniProt P27449); settings: binding to V-ATPase; Drose and Altendorf, 1997; cited from earlier work
Chain of V-ATPase (P27449 whole entry): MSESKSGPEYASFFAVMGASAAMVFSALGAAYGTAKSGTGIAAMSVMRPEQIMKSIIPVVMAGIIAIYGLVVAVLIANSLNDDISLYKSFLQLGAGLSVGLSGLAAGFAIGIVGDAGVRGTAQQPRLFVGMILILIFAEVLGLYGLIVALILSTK

[4] = cited from earlier work
[5] = Bafilomycin A1 8 nM, no radiation
[6] = subcutaneous, 1.4 mol/kg/day for 14 days

## bafilomycin A1
[1]; 2 nM bafilomycin A1, 300 cGy, two separate experiments
  reduction of survival of irradiated cells: 45% and 32%
[1]; Baf A1 2nM added at irradiation for 24 hours, 2 Gy
  Surviving fraction in the presence of Baf A1 (2nM): 0.51 ± 0.07
[1]; Baf A1 2nM added at irradiation for 24 hours, 3 Gy
  Surviving fraction in the presence of Baf A1 (2nM): 0.23 ± 0.05
[1]; Baf A1 2nM for 24 hours, 0 Gy, listed as Baf A1
  Surviving fraction in the presence of Baf A1 (2nM): 0.9 ± 0.14
[1]; Baf A1 2nM for 24 hours, 0 Gy, listed as bafilomycin A1
  Surviving fraction in the presence of Baf A1 (2nM): without significantly affecting
[1]; Bafilomycin A1 8 nM, 2 Gy
  Normalized Surviving Fraction: 0.47
  Plating Efficiency: 43 ± 7.7
  Surviving Fraction: 0.26
[1]; Bafilomycin A1 8 nM, 4 Gy
  Normalized Surviving Fraction: 0.11
  Plating Efficiency: 21 ± 3.4
  Surviving Fraction: 0.06
[1]; Bafilomycin A1 8 nM, 6 Gy
  Normalized Surviving Fraction: 0.23
  Plating Efficiency: 7 ± 3
  Surviving Fraction: 0.01
[1]; [5]
  Normalized Surviving Fraction: 1
  Plating Efficiency: 98 ± 12
  Surviving Fraction: 0.59
[1]; MCF-7, 2 nM bafilomycin, 100 nM adriamycin
  decrease of survival: 34%
[1]; Table 4, 2 nM bafilomycin A1, 2 Gy
  Surviving Fraction: 0.51 ± 0.07
[1]; Table 4, 2 nM bafilomycin A1, 4 Gy
  Surviving Fraction: 0.17 ± 0.02
[1]; Table 4, 2 nM bafilomycin A1, 6 Gy
  Surviving Fraction: 0.02 ± 0.003
[1]; Table 4, 2 nM bafilomycin A1, 200 cGy
  decrease of survival following irradiation: 27%
[1]; Table 4, 2 nM bafilomycin A1, 400 cGy
  decrease of survival following irradiation: 37%
[1]; Table 5, 2 nM bafilomycin A1, 200 cGy
  decrease of cell survival following irradiation: 19%
[1]; Table 5, 2 nM bafilomycin A1, 400 cGy
  decrease of cell survival following irradiation: 13%
[1]; Table 5, 2 nM bafilomycin A1, Radiation Dose (cGy) 0
  Surviving Fraction: 1 ± 0.07
[1]; Table 5, 2 nM bafilomycin A1, Radiation Dose (cGy) 2
  Surviving Fraction: 0.57 ± 0.04
[1]; Table 5, 2 nM bafilomycin A1, Radiation Dose (cGy) 4
  Surviving Fraction: 0.27 ± 0.01
[1]; Table 5, 2 nM bafilomycin A1, Radiation Dose (cGy) 6
  Surviving Fraction: 0.05 ± 0.01
[1]; Table 6, 2 nM bafilomycin, 3 Gy
  reduction of survival: 37%
[1]; Table 6, 2 nM bafilomycin, X radiated 3 Gy
  Surviving Fraction: 0.28 ± 0.03
[1]; Table 6, 4 nM bafilomycin, C non-irradiated control
  Surviving Fraction: 0.7 ± 0.03
[1]; Table 6, 4 nM bafilomycin, X radiated 3 Gy
  Surviving Fraction: 0.2 ± 0.03
[1]; Table 6, 8 nM bafilomycin, C non-irradiated control
  Surviving Fraction: 0.66 ± 0.05
[1]; Table 6, 8 nM bafilomycin, X radiated 3 Gy
  Surviving Fraction: 0.14 ± 0.02
[1]; Table 6, 16 nM bafilomycin, C non-irradiated control
  Surviving Fraction: 0.52 ± 0.05
[1]; Table 6, 16 nM bafilomycin, X radiated 3 Gy
  Surviving Fraction: 0.12 ± 0.03
[1]; Table 7, 2 nM bafilomycin A1, C non-irradiated
  Surviving Fraction: does not significantly affect
[1]; Table 7, 2 nM bafilomycin A1, C non-irradiated, listed as bafilomycin Al
  Surviving Fraction: 0.92 ± 0.06
[1]; Table 7, 2 nM bafilomycin A1, X radiated 3 Gy
  Surviving Fraction: 0.22 ± 0.04
[1]; Table 7, 2 nM bafilomycin, 300 cGy
  reduction of cell survival: 49%
[1]; Table 7, 4 nM bafilomycin A1, C non-irradiated
  Surviving Fraction: 0.79 ± 0.04
[1]; Table 7, 4 nM bafilomycin A1, X radiated 3 Gy
  Surviving Fraction: 0.16 ± 0.04
[1]; Table 7, 8 nM bafilomycin A1, C non-irradiated
  Surviving Fraction: 0.60 ± 0.08
[1]; Table 7, 8 nM bafilomycin A1, X radiated 3 Gy
  Surviving Fraction: 0.12 ± 0.02
[1]; Table 7, 16 nM bafilomycin A1, C non-irradiated
  Surviving Fraction: 0.35 ± 0.05
[1]; Table 7, 16 nM bafilomycin A1, X radiated 3 Gy
  Surviving Fraction: 0.09 ± 0.04
[1]; Table 15, MCF-7, Bafilomycin 2 nM alone
  survival (head of column empty): 0.95 ± 0.1
[1]; Table 15, MCF-7, Bafilomycin 4 nM + 100 nM adriamycin
  survival, column Adriamycin: 0.35 ± 0.05
[1]; Table 15, MCF-7, Bafilomycin 4 nM alone
  survival (head of column empty): 0.61 ± 0.05
[1]; Table 18, MCF-7, Bafilomycin A1 2 nM + Etoposide 0.05 μg/ml
  cell survival, Bafilomycin A1 (2 nM): 0.36 ± 0.08
[1]; bafilomycin A1 for 24 hours following irradiation with 2 and 3 Gy
  reduction of the surviving fraction: 30%-40%
[2]; Table 15, Bafilomycin 2 nM + 100 nM adriamycin, average of two plates
  survival, column Adriamycin: (0.56; 0.58)0.57*
[2]; Table 18, Bafilomycin A1 2 nM, Etoposide 0 μg/ml
  cell survival, Bafilomycin A1 (2 nM): 0.9 ± 0.09
[2]; bafilomycin 2 nM, etoposide 0.05 μg/ml, Table 18
  decrease of survival in the presence of etoposide: 54%
[3]
  DNA cleavage into large fragments (20-1000 kb): dramatically increased DNA clevage into large fragments
V-ATPase
  Kd: 10 nM
[4]; intravenous, Keeling, 1997
  toxicity when injected intravenously: toxic
[4]; [6]
  bone readsorption: increased bone readsorption
  toxicity: non-toxic
[4]; subcutaneous
  tolerability when administered subcutaneously: tolerated
